Experimental data from patent US20240400986A1, “MEMBRANE BOUND COMPOSITIONS AND METHODS RELATING TO SAME” (FLAGSHIP PIONEERING INNOVATIONS VII, LLC, priority 2021, published 2024).
Peptide text beside a SMILES is read from it. * marks the point of attachment. Cbz = O=C(OCc1ccccc1)*

What was measured:
[1] = system: cardiomyocytic cell line derived from human ventricular heart tissue; assay: Small molecule compound screen of gigasome production in cardiomyocytic monocultures; conditions: for Number of Gigasomes Produced: Table 22, cardiomyocytes, 24 hours;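 as to all read-outs here: gigasomes shed into the culture medium were imaged by confocal microscopy and counted as round particles lacking nuclear signal, extrapolated to the whole well, fold change is relative to DMSO vehicle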
Protocol: For the screening, a total of 100 randomly organized compounds (TargetMol) were divided in 5 groups. Each group included an untreated condition, a vehicular DMSO control, and a known high-gigasome producing condition to comparatively study gigasome production rates. As a cell death control group, 500 nM Staurosporine was added to induce apoptosis. Cultures were incubated for 24 hours under gigasome inducing conditions at concentrations ranging between 10 nM and 10,000 nM. […] The Zeiss ZEN Blue software was used to distribute imaging fields of view (positions) to create an unbiased imaging sample of a well. 5 images were taken using a Zeiss LSM 900 confocal microscope. […] The BioApps ZEN software package was used to perform cell nucleus segmentation and counting. After 24 hours, gigasomes were harvested from the cell culture media by gently removing from the top of each 96-well ⅔ of the total volume without disturbing the cell layer (containing the settled gigasomes) and by adding to each well the same amount of PBS containing 0.5 mM EDTA. The wells were washed twice gently, and the gigasome-containing media/0.5 mM EDTA PBS wash was transferred into the well of a 384-well glass bottom plate. Cells remaining in the 96-well plates were assessed for viability using CellTiter-Glo (Promega).
For gigasome analysis in 384-well plates, the Zeiss ZEN Blue software was used to distribute positions to create an unbiased imaging sample of a well. 6 images per well were taken using a Zeiss LSM 900 confocal microscope. […] A watershed binary segmentation step was performed to separate grouped objects. For each particle in the mask, characteristic parameters of the particle were calculated and saved. […] Particles of interest were identified by thresholding by area and circularity. […] Circularity, defined by the formula 4pi(area/perimeter^2, was set to be between 0.8, where a value of 1.0 is a perfect circle, and a value of 0 is a line. Gigasomes were identified from the particles of interest by thresholding by mean nuclear signal. The nuclear signal threshold was set using a value equal to one quarter of a threshold value calculated by the Li auto-threshold algorithm applied to the distribution of all particles of interest. Particles of interest with nuclear signal below this value were considered “negative” for nuclear material and were identified as gigasomes. A sampling factor was calculated to extrapolate the total quantity of a type of object (particles, particles of interest, gigasomes) in the well. The sampling factor was the percentage of the well's area that was imaged. […] In some experiments, the number of cells in the cell cultures were estimated with a cell counter. […] The normalized quantity or distribution of objects was described as a quantity or distribution of objects per 1000 cells.

[2] = system: neuronal cell line derived from human neuroblastoma; conditions: neuronal cells, dose 100 nM, 24 hours
Protocol: For the screening, a total of 99 compounds (TargetMol) were divided in 5 groups. Each group included an untreated condition, a vehicular DMSO control, and a known high-gigasome producing condition to comparatively study gigasome production rates. As a cell death control group, 500 nM Staurosporine was added to induce apoptosis. Cultures were incubated for 24 hours under gigasome inducing conditions at concentrations ranging between 10 nM and 10,000 nM. Before the end of the treatment, live neuronal cultures were imaged. The Zeiss ZEN Blue software was used to distribute imaging fields of view (positions) to create an unbiased imaging sample of a well. 5 images were taken using a Zeiss LSM 900 confocal microscope. […] The BioApps ZEN software package was used to perform cell nucleus segmentation and counting. After 24 hours, gigasomes were harvested from the cell culture media by gently removing from the top of each 96-well ⅔ of the total volume without disturbing the cell layer (containing the settled gigasomes) and by adding to each well the same amount of PBS. […] Cells remaining in the 96-well plates were assessed for viability using CellTiter-Glo (Promega).

[3] = system: neuronal cells; assay: Gigasome-mediated extraction of APP-CTFs upon γ-secretase and proteasome inhibition (fixed plates, confocal); type: cell-based, human
Protocol: Cells were treated with the γ-secretase inhibitor L-685,458 at 5 μM, either alone or in combination with the proteasome inhibitor MG-132 at 0.1 μM. A vehicular control amount of DMSO was added to the media to comparatively study cargo signals within cells and gigasomes. Treatments were carried out in reduced serum-containing media (3% FBS) for 24 hours. Disease-related cargo presence within cells and in gigasomes was characterized and quantified by confocal microscopy analysis of 4% paraformaldehyde fixed cells, following (immuno)fluorescent labeling of cytosolic, nuclear and cargo-specific protein markers. In some experiments β-III tubulin and Alexa Fluor® 488 phalloidin were used to mark the cytosol and proximal plasma membrane, respectively. To detect APP-CTFs, an antibody against the C-terminus of APP (C-APP) was used (see Table 12). Non-specific labeling was blocked by incubation with 5% normal goat serum in PBS in the presence of 0.05% saponin, for 1 h at room temperature. Primary antibodies were incubated overnight at 4° C., followed by incubation with Alexa Fluor®-conjugated secondary antibodies for 1 hour at room temperature. Nuclei were counterstained with DAPI.
A range of 5-8 images per well were taken from replicate experiments to capture a final total range of 150-200 cells. […] The cellular cargo fluorescence intensity in the red channel was quantified by subtracting the background signal from each image, using the ImageJ built-in “subtract background” function with a default rolling ball radius of 50 pixel. The cargo signal (integrated density) in the red channel was measured and normalized to the number of nuclei counted in each field. […]
For particle analysis, the cytosolic and F-actin/membrane signals were merged into single RGB image, converted to grayscale and then thresholded to create a cellular mask of objects in the field of view, as calculated by the “Li” autothreshold algorithm. […] The quantity or distribution of objects obtained from the particle analysis was divided by the number of cells counted in each field to obtain a normalized quantity or distribution.

[4] = system: neuronal cells; assay: Gigasome-mediated extraction of exogenously added Tau fibrils (live plated cells and culture media); type: cell-based, human
Protocol: P301S mutant Tau fibrils conjugated to the fluorescent probe ATTO 488 (Table 12) were resuspended at 50 nM in reduced serum-containing media and added to half of the cell-containing wells for 3 hours at 37° C. Following Tau fibrils uptake, cells were trypsinized to remove excess Tau fibrils attached to the cell surface, labeled with Hoechst 33342 to visualize nuclei and CellTracker Orange to visualize the cytoplasm and plated in a new poly-L-lysine-coated 24-well glass bottom plates. Cells were allowed to attach (2-3 hours), before addition of 0.1 μM MG-132 in reduced serum-containing media for additional 18-20 h.
For analysis, 10-15×16-bit images per well were captured with a 20× objective and processed for analysis of gigasome production. Composite images were separated in the different channels. The background was subtracted from the green Tau fibrils cargo channel, as described Example 13.a and the signal thresholded using the “Yen” autothreshold algorithm. The cargo signal (integrated density) in the green channel was measured and normalized to the number of nuclei counted in each field in the Tau-F conditions. […] The quantity or distribution of objects obtained from the particle analysis was divided by the number of cells counted in each field to obtain a normalized quantity or distribution. […]

[5] = system: cardiomyocytic cell line derived from human ventricular heart tissue; assay: Cell viability in cardiomyocyte compound screen (CellTiter-Glo); type: cell-based; conditions: human, 24 h
Description: Cells were stained with Hoechst 34580, CellTracker Green/CellMask Green Actin and MitoTracker Deep Red to detect nuclear material, cytoplasm/F-actin, and mitochondria, respectively, and cultured in poly-L-lysine-coated 96-well glass bottom plates at 15,800 cells/cm^2 and allowed to adhere overnight. For the screening, a total of 100 randomly organized compounds (TargetMol) were divided in 5 groups. Each group included an untreated condition, a vehicular DMSO control, and a known high-gigasome producing condition to comparatively study gigasome production rates. As a cell death control group, 500 nM Staurosporine was added to induce apoptosis. Cultures were incubated for 24 hours under gigasome inducing conditions at concentrations ranging between 10 nM and 10,000 nM. […] Cells remaining in the 96-well plates were assessed for viability using CellTiter-Glo (Promega).

[6] = system: neuronal cells; assay: Live microscopy of neuronal gigasome generation; type: cell-based, human; conditions: 0.1 M MG-132; live time-lapse microscopy; compared to DMSO control
Protocol: Cells were stained with Hoechst 33342 to visualize nuclei and nuclear material, CellTracker Green to visualize cytoplasm, and MitoTracker Deep Red to visualize mitochondria. Gigasome production was then induced with various drugs as described in Example 1. Cell cultures were imaged every 15-30 minutes under a time lapse for up to 48 hours (FIGS. 1A and 1B). For image analysis, ImageJ and Zeiss ZEN Blue software was used. Gigasomes were identified and quantified as distinct circular/spherical vesicles in the extracellular space of the neurons, between 1-20 μm in diameter. Gigasomes were identified based on having positive neuronal cytoplasmic signal and negative Hoechst 33342 signal. The presence of mitochondria in gigasomes was measured via respective fluorescent signal.
Time-lapse montages were produced and edited to show the formation of gigasomes from parent neuronal cells after treatment with […] MG-132 (FIGS. 1A and 1B). Gigasomes and parent cells were identified and tracked throughout the duration of the time lapse. In some experiments, gigasomes produced by parent cells in MG-132 treatment groups were identified.

[7] = Homo sapiens, Cardiomyocyte, 24 h, read-out: Fold Change of Gigasomes Produced vs. DMSO

CC(C)C[C@@H](C=O)NC(=O)[C@H](CC(C)C)NC(=O)[C@H](CC(C)C)NC(=O)OCc1ccccc1 [MG-132, reference compound] (Cbz-Leu-Leu-Leu-aldehyde)
fold induction at 0.01 µM [1, 7]: 1.5 to 1.75
fold induction at 0.1 µM [1, 7]: > 4
Number of Gigasomes Produced ([1]; dose 10 nM): 150-175
Number of Gigasomes Produced ([1]; dose 100 nM): >400
Viability [2]: 50-75%
C-APP+ve particle intensity distribution (gigasome diameter and brightness) ([3]; compared to γ-secretase inhibitor and DMSO conditions (FIG. 6D)): larger in diameter and brighter
intracellular APP-CTF levels (C-APP immunoreactivity) ([3]; γ-secretase inhibitor 5 μM, MG-132 0.1 μM, alone or combined, 24 h, compared to DMSO): does not increase
gigasomes per 1000 cells ([4]; gigasomes harvested from cell culture media (FIG. 8E)): approximately 4.5 per 1000 cells
gigasomes per 1000 cells ([4]; plated live cells, Tau fibrils 50 nM 3 h, MG-132 0.1 μM 18-20 h (FIG. 8C)): approximately 325 per 1000 cells
Viability ([5]; 10 nM): 100%
Viability ([5]; 100 nM): 50-75%
gigasome production [6]: increase
